Laboratory results as given in US8198315B2, “Therapeutic substituted cyclic lactams” (Allergan, Inc., priority 2007, dated 2012).

What was measured:
hIP = hIP (Homo sapiens, UniProt P43119); assay: Other receptors functional assay, hIP; assay type: cell-based
Text: (§1) U.S. patent application Ser. No. 11/553,143, filed on Oct. 26, 2006, incorporated by reference herein, describes the methods used to obtain the in vitro data in the table below.

hTP = molecular target: T1, hTP (Homo sapiens, UniProt P21731); assay: Other receptors functional assay, hTP; assay type: cell-based
T1 sequence (P21731 1-343): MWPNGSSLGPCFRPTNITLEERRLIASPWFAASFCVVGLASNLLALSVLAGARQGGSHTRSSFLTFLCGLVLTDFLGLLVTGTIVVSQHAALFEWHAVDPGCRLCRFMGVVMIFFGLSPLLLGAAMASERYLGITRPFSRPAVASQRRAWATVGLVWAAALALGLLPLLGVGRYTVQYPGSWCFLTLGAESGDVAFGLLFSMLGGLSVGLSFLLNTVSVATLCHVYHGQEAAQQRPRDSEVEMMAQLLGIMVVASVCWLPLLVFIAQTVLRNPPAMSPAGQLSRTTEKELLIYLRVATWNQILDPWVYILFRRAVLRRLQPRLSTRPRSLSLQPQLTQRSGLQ
Text: as §1

hDP = molecular target: T2, hDP (Homo sapiens, UniProt Q13258); assay: Other receptors functional assay, hDP; assay type: cell-based
T2 sequence (Q13258 1-359): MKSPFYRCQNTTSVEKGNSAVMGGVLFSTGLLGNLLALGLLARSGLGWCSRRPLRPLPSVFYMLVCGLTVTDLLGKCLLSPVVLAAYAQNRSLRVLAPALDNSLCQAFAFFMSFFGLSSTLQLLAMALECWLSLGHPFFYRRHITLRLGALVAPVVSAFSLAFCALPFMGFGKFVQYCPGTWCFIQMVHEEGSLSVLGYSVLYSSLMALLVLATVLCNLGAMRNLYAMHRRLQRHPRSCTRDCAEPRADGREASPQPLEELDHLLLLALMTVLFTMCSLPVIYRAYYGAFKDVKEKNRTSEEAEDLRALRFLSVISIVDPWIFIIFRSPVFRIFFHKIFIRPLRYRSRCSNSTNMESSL
Text: as §1

EP2 [1] = molecular target: T3, EP2 (Homo sapiens, UniProt P43116); assay: EP2 flipr assay; assay type: cell-based
T3 sequence (P43116 whole entry): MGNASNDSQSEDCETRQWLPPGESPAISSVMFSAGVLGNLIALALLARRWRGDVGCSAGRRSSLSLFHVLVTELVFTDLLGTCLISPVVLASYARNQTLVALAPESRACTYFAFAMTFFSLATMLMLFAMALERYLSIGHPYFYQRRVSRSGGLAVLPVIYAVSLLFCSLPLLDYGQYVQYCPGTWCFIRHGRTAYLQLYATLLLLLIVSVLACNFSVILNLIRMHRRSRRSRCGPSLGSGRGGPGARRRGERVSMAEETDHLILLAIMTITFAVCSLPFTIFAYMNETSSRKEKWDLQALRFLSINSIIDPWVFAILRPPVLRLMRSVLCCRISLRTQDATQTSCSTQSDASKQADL
Text: as §1

EP2 [2] = molecular target: T3, EP2; assay: EP2 binding (Ki)
Text: as §1

EP2 [3] = molecular target: T3, EP2; assay: EP2 cAMP assay; assay type: cell-based
Text: as §1

hEP3A = molecular target: T4, hEP3A (Homo sapiens, UniProt P43115); assay: Other receptors functional assay, hEP3A; assay type: cell-based
T4 sequence (P43115 1-390): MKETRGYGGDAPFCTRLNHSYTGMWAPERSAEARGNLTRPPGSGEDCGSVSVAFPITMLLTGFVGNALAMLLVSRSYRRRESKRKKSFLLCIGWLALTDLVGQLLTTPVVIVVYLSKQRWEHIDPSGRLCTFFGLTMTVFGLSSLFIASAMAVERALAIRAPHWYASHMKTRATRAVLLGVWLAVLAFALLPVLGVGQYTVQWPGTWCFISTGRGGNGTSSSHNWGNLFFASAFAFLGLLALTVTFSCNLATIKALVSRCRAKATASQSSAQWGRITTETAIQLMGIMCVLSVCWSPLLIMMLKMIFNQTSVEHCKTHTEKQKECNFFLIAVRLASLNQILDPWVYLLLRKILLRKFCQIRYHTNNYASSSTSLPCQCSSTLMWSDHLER
Text: as §1

normotensive dogs [4] = assay: Ocular surface hyperemia in normotensive dogs; assay type: in vivo, dog; settings: once daily for 5 days
Procedure: (§2) U.S. Pat. No. 7,091,231 describes the methods used to carry out the tests reported below.
(§3) 5-[(R)-1-((S)-3-Hydroxyoctyl)-5-oxopyrrolidin-2-ylmethoxymethyl]-thiophene-2-carboxylic isopropyl ester was tested in normotensive dogs at 2 concentrations, dosing once daily for 5 days. At 0.1%, the maximum intraocular pressure (TOP) decrease from baseline was 8 mmHg (47%) at 78 h; the maximum ocular surface hyperemia (OSH) score was 2.25 at 50 h. At 0.01%, the maximum TOP decrease from baseline was 6.1 mmHg (35%) at 78 h; the maximum OSH score was 1.7 at 30 h. This compound was also tested in laser-induced hypertensive monkeys, using one single day dose. At 0.1%, the maximum TOP decrease from baseline was 17 mmHg (48%) at 6 h.

normotensive dogs [5] = assay: Intraocular pressure in normotensive dogs; assay type: in vivo, dog; settings: once daily for 5 days, at 78 h
Procedure: as §2, §3

[6] = test system: laser-induced hypertensive monkeys; assay: Intraocular pressure in laser-induced hypertensive monkeys; assay type: in vivo, monkey; settings: 0.1%, one single day dose, at 6 h
Procedure: as §2, §3

EP4 [7] = molecular target: T5, EP4 (Homo sapiens, UniProt P35408); assay: EP4 flipr assay; assay type: cell-based; settings: read-out: EP4 data flip EC50
T5 sequence (P35408 whole entry): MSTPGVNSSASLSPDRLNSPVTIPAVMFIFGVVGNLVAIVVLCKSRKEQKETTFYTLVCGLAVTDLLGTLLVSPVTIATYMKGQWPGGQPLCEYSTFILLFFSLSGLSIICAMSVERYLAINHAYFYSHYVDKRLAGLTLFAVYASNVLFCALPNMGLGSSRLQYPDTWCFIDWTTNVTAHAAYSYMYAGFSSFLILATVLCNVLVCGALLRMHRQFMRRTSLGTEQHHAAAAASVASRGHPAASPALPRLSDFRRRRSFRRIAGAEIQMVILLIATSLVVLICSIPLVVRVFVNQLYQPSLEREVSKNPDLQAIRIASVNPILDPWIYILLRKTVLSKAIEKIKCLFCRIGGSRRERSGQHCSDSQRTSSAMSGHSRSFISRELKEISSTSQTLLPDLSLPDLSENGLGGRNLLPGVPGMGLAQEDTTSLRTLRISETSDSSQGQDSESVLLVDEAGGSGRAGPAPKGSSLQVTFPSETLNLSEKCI
Text: as §1

EP4 [8] = molecular target: T5, EP4; assay: EP4 binding (Ki)
Text: as §1

Sequence of hIP (P43119 whole entry): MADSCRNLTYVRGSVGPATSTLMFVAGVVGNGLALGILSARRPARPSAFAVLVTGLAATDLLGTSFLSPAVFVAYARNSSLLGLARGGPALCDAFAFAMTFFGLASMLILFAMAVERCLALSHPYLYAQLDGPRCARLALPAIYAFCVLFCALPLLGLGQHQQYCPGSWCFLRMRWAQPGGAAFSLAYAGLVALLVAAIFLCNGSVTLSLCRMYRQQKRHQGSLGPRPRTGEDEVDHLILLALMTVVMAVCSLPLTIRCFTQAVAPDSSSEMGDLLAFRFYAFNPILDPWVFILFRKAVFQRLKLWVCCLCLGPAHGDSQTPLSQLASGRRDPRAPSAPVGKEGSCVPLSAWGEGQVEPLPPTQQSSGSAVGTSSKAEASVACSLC

Row | Compound | EC50 (hIP) [nM] | EC50 (hTP) [nM] | EC50 (hDP) [nM] | EC50 (EP2 [1]) [nM] | Ki (EP2 [2]) [nM] | EC50 (EP2 [3]) [nM] | EC50 (hEP3A) [nM] | maximum ocular surface hyperemia (OSH) score (normotensive dogs [4]; 0.01%, at 30 h) | maximum ocular surface hyperemia (OSH) score (normotensive dogs [4]; 0.1%, at 50 h) | EC50 (EP4 [7]) [nM] | Ki (EP4 [8]) [nM] | maximum intraocular pressure decrease from baseline (normotensive dogs [5]; 0.01%) [mmHg] | maximum intraocular pressure decrease from baseline (percent) (normotensive dogs [5]; 0.01%) [%] | maximum intraocular pressure decrease from baseline (normotensive dogs [5]; 0.1%) [mmHg] | maximum intraocular pressure decrease from baseline (percent) (normotensive dogs [5]; 0.1%) [%] | maximum intraocular pressure decrease from baseline [6] [mmHg] | maximum intraocular pressure decrease from baseline (percent) [6] [%]
1 | CCCCC[C@H](O)CCN1C(=O)CC[C@@H]1COCc1ccc(C(=O)O)s1 [Example 1, 5-[(R)-1-((S)-3-Hydroxyoctyl)-5-oxopyrrolidin-2-ylmethoxymethyl]-thiophene-2-carboxylic acid] |  | 4890 | 6.8 | 1570 | 2880 | 19 | 2220 |  |  | 7850 | 8720 |  |  |  |  |  | 
2 | CCCCC[C@H](O)CCN1C(=O)CC[C@@H]1COCc1ccc(C(=O)NS(C)(=O)=O)s1 [Example 2, N-{5-[(R)-1-((S)-3-Hydroxy-octyl)-5-oxopyrrolidin-2-ylmethoxymethyl]-thiophene-2-carbonyl}-methanesulfonamide] | > 10000 | > 10000 | 194 |  |  |  | 2030 |  |  |  |  |  |  |  |  |  | 

Continued, in another order:

Row | EC50 (hIP) [nM] | EC50 (hTP) [nM] | EC50 (hDP) [nM] | EC50 (EP2 [1]) [nM] | Ki (EP2 [2]) [nM] | EC50 (EP2 [3]) [nM] | EC50 (hEP3A) [nM] | maximum ocular surface hyperemia (OSH) score (normotensive dogs [4]; 0.01%, at 30 h) | maximum ocular surface hyperemia (OSH) score (normotensive dogs [4]; 0.1%, at 50 h) | EC50 (EP4 [7]) [nM] | Ki (EP4 [8]) [nM] | Compound | maximum intraocular pressure decrease from baseline (normotensive dogs [5]; 0.01%) [mmHg] | maximum intraocular pressure decrease from baseline (percent) (normotensive dogs [5]; 0.01%) [%] | maximum intraocular pressure decrease from baseline (normotensive dogs [5]; 0.1%) [mmHg] | maximum intraocular pressure decrease from baseline (percent) (normotensive dogs [5]; 0.1%) [%] | maximum intraocular pressure decrease from baseline [6] [mmHg] | maximum intraocular pressure decrease from baseline (percent) [6] [%]
3 | > 10000 | > 10000 | > 10000 |  |  |  |  |  |  |  |  | CCCCC[C@H](O)CCN1C(=O)CC[C@@H]1COCc1ccc(C(=O)NCC)s1 [Example 3, 5-[(R)-1-((S)-3-Hydroxy-octyl)-5-oxopyrrolidin-2-ylmethoxymethyl]-thiophene-2-carboxylic acid ethylamide] |  |  |  |  |  | 
4 | > 10000 | > 10000 | 213 | > 10000 | 1200 | 20 | > 10000 |  |  |  |  | CCCC1(C(O)CCCN2C(=O)CC[C@@H]2COCc2ccc(C(=O)O)s2)CCC1 (mixture of isomers) [Example 4, 5-{(R)-1-[4-Hydroxy-4-(1-propylcyclobutyl)-butyl]-5-oxopyrrolidin-2-ylmethoxymethyl}-thiophene-2-carboxylic acid] |  |  |  |  |  | 
5 |  |  |  |  |  |  |  | 1.7 | 2.25 |  |  | CCCCC[C@H](O)CCN1C(=O)CC[C@@H]1COCc1ccc(C(=O)OC(C)C)s1 [Example 5, 5-[(R)-1-((S)-3-Hydroxyoctyl)-5-oxopyrrolidin-2-ylmethoxymethyl]-thiophene-2-carboxylic isopropyl ester] | 6.1 | 35 | 8 | 47 | 17 | 48
